# Data reported in patent publication US5696153A, “Therapeutic regimen for treating patients” (priority 1996, dated 1997).
# “Also recorded” adds a separate entry of the source. Read-outs that look alike come from different tables or passages of the source.
# Assays:
# [1] = cited from earlier work
# [2] = tested on: ovarian and breast cancers; conditions: background statement; cited from earlier work
# [3] = tested on: SK-N-AS cells; assay: Sensitivity to a second dose of taxol at different times after a first dose (FIG. 1); type: cell-based, human
# [4] = 40 mg/kg single IP
# Description: (§1) Five nude mice were maintained in each cage with a fiberglass bonnet in a clean isolation room. All cages and food were sterilized prior to use. Female nude mice were inoculated subcutaneously with 3×10^6 human neuroblastoma (SK-N-AS) tumor cells. Between 8-16 days, tumor growth was evident and measured.
# Following sacrifice by cervical dislocation, tumor and normal tissues were immediately removed, sonicated, diluted in buffer (PBS containing 0.25% BSA, 0.05%, Tween 20, Methanol 20%, and Sodium Azide 2%). […] Tissue protein was determined using the BioRad kit (BioRad, 3300 Regatta Boulevard, Richmond, Calif. 94804).
# [5] = tested on: recurrent or refractory solid tumors of childhood; assay: Study Y: pilot study of children with recurrent or refractory cancer; type: in vivo, human (children)
# Description: A pilot study of children with recurrent or refractory cancer was initiated under our direction. Ten patients with a variety of recurrent or refractory solid tumors of childhood were treated with the same dosage and schedule as the adults described above.
# [6] = Human toxicity, Q4D schedule (Study X); type: in vivo, human patients
# Text: […] It should be understood that these patients were deemed "salvage" cases almost all of whom had not responded to conventional treatment. All were otherwise thought to be beyond approved therapeutic regimens. Thus, the results and evaluation are anecdotal in nature and are not part of a controlled and statistical valid clinical trial.
# […] All were previously treated with chemotherapy and radiation for cancers of the breast (5), ovarian (2), brain (3), prostate (1), head and neck (4), bone (2), leiomyosarcoma (2), and melanoma (1).
# [7] = Toxicity in nude mice (wasting, weight loss); type: in vivo
# [8] = tested on: SK-N-AS cells; assay: Effects of spacing exposure to taxol on toxicity in SK-N-AS cells
# Description: Stock cells in 25 cm^2 flasks were incubated in Dubelco's modified Eagle's medium (Sigma, St. Louis, Mo.) containing 10% fetal bovine serum at 37° C. and 5% CO2 in air for 5 days. Media was renewed on the sixth day and on the seventh day the cells were detached into a single cell suspension with trypsin EDTA, counted and aliquots plated at 3000 to 5000 cells in 0.1 ml fresh media in separate wells of a 96-well microliter plate (Becton-Dickinson Labware, Lincoln Park, N.J.). […] Six replicate wells were used in every experiment as controls and for each test concentration. Each experiment was repeated three separate times. Viability of the cell lines 5 days after exposure to drugs was determined by the MTT assay following published procedures.
# [9] = Study B: taxol tissue levels after three IP injections at 4 day intervals; type: in vivo, nude mice; conditions: seven days after third injection
# [10] = tested on: SK-N-AS neuroblastoma tumor in nude mice; type: in vivo
# Description: as §1
# [11] = clinical; set-up: species or system human patients; conditions: human, in vivo, iv
# Text: Characteristics of the group of twenty were: male (5); female (15); median age 44 (17-81); ECOG-PS 1 (0-3). All were previously treated with chemotherapy and radiation for cancers of the breast (5), ovarian (2), brain (3), prostate (1), head and neck (4), bone (2), leiomyosarcoma (2), and melanoma (1).
# [12] = Homo sapiens, SK-N-AS, 120 h, read-out: Survival (%)
structure (smiles),measurement,setting,value
CC(=O)O[C@H]1C(=O)[C@@]2(C)[C@H]([C@H](OC(=O)c3ccccc3)[C@]3(O)C[C@H](OC(=O)[C@H](O)[C@@H](NC(=O)c4ccccc4)c4ccccc4)C(C)=C1C3(C)C)[C@]1(OC(C)=O)CO[C@@H]1C[C@@H]2O [taxol],maximum tolerated dose,"[1]; Brown et al, six-hour infusion every twenty-one days, no premedication",275 mg/m^2
same,incidence of hypersensitivity reactions,[1]; Brown et al,dependent upon the schedule over which the taxol was administered
same,hypersensitivity reactions,"[1]; Kris et al, three hour infusion, 15-200 mg/m^2",severity and unpredictability of hypersensitivity reactions
same,antitumor activity in words,[2],among the most active single agent for ovarian and breast cancers
same,time to revertant taxol susceptibility,"[3]; after initial exposure, concluded",four
same,sensitivity to second dose of taxol,"[3]; second dose 24 to 120 hours after first, two experiments",rebounded at the fourth day and continued to the fifth day to the original sensitivity levels
same,"concentration in normal tissues, treated vs controls","10 mg/kg IP Q4D×3, then single 20 mg/kg IP",consistently greater than in nontreated controls; also recorded: consistently greater than in Group A
same,"concentration in tumor vs liver, kidney or lung",after single 20 mg/kg IP,"usually greater in tumor tissue compared to liver, kidney or lung"
same,"distribution in tumor tissue compared to liver, kidney or lung","mouse, in vivo",four to thirty
same,"Taxol, tumor","treated (Cages II, III): 10 mg/kg Q4D×3, then 20 mg/kg IP 24 h prior, individual mice",195.24 ng/mg Protein
same,Tumor size,[4]; day 1,378 mm^2
same,Tumor size,[4]; day 2,480 mm^2
same,Tumor size,[4]; day 3,208 mm^2
same,Tumor size,[4]; day 4,80 mm^2
same,Tumor size,[4]; day 5,252 mm^2
same,Tumor size,[4]; day 6,154 mm^2
same,tumor response on CT scan,"[5]; one patient, pelvic embryonal rhabdomyosarcoma",shrinkage of their tumor
same,decrease in tumor volume,"[5]; one patient, recurrent glioblastoma multiforme, after 9 treatments",30%
same,progression,"[5]; rhabdomyosarcoma patient, shortly following the 9th treatment",developed a brain metastasis
same,toxic reaction and side effects vs twenty-four hour infusion,"[6]; 45-120 mg/m^2, 60-180 minutes, Q4D×3",less toxic reaction and side effects than equivalent dosage levels over a twenty-four hour infusion
same,maximum amount infused without exceeding toxicity limits,[6]; 80 minute interval,120 mg/m^2
same,Alk. Phos. toxicity: A None,[6]; Q4D 60 mg/m^2,18
same,"Alk. Phos. toxicity: B Abnormal pre-III, Improved",[6]; Q4D 60 mg/m^2,3
same,"Alk. Phos. toxicity: C Abnormal pre-III, Worsened or same",[6]; Q4D 60 mg/m^2,1
same,"Alk. Phos. toxicity: D Normal pre-III, Worsened",[6]; Q4D 60 mg/m^2,1
same,Alk. Phos. toxicity: E Grades,[6]; Q4D 60 mg/m^2,1
same,Bilirubin toxicity: A None,[6]; Q4D 60 mg/m^2,22
same,"Bilirubin toxicity: B Abnormal pre-III, Improved",[6]; Q4D 60 mg/m^2,0
same,"Bilirubin toxicity: C Abnormal pre-III, Worsened or same",[6]; Q4D 60 mg/m^2,0
same,"Bilirubin toxicity: D Normal pre-III, Worsened",[6]; Q4D 60 mg/m^2,1
same,Bilirubin toxicity: E Grades,[6]; Q4D 60 mg/m^2,1
same,HB toxicity: A None,[6]; Q4D 60 mg/m^2,18
same,"HB toxicity: B Abnormal pre-III, Improved",[6]; Q4D 60 mg/m^2,1
same,"HB toxicity: C Abnormal pre-III, Worsened or same",[6]; Q4D 60 mg/m^2,2
same,"HB toxicity: D Normal pre-III, Worsened",[6]; Q4D 60 mg/m^2,2
same,HB toxicity: E Grades,[6]; Q4D 60 mg/m^2,"1,4"
same,PLT. toxicity: A None,[6]; Q4D 60 mg/m^2,19
same,"PLT. toxicity: B Abnormal pre-III, Improved",[6]; Q4D 60 mg/m^2,0
same,"PLT. toxicity: C Abnormal pre-III, Worsened or same",[6]; Q4D 60 mg/m^2,3
same,"PLT. toxicity: D Normal pre-III, Worsened",[6]; Q4D 60 mg/m^2,1
same,PLT. toxicity: E Grades,[6]; Q4D 60 mg/m^2,3
same,SGOT toxicity: A None,[6]; Q4D 60 mg/m^2,20
same,"SGOT toxicity: B Abnormal pre-III, Improved",[6]; Q4D 60 mg/m^2,0
same,"SGOT toxicity: C Abnormal pre-III, Worsened or same",[6]; Q4D 60 mg/m^2,0
same,"SGOT toxicity: D Normal pre-III, Worsened",[6]; Q4D 60 mg/m^2,3
same,WBC toxicity: A None,[6]; Q4D 60 mg/m^2,15
same,"WBC toxicity: B Abnormal pre-III, Improved",[6]; Q4D 60 mg/m^2,0
same,"WBC toxicity: C Abnormal pre-III, Worsened or same",[6]; Q4D 60 mg/m^2,2
same,"WBC toxicity: D Normal pre-III, Worsened",[6]; Q4D 60 mg/m^2,6
same,GGT toxicity: A None,"[6]; Q4D 60 mg/m^2, 11 pts",9
same,"GGT toxicity: B Abnormal pre-III, Improved","[6]; Q4D 60 mg/m^2, 11 pts",2
same,"GGT toxicity: C Abnormal pre-III, Worsened or same","[6]; Q4D 60 mg/m^2, 11 pts",0
same,"GGT toxicity: D Normal pre-III, Worsened","[6]; Q4D 60 mg/m^2, 11 pts",0
same,Alb. toxicity: A None,"[6]; Q4D 60 mg/m^2, 22 pts",22
same,"Alb. toxicity: B Abnormal pre-III, Improved","[6]; Q4D 60 mg/m^2, 22 pts",0
same,"Alb. toxicity: C Abnormal pre-III, Worsened or same","[6]; Q4D 60 mg/m^2, 22 pts",0
same,"Alb. toxicity: D Normal pre-III, Worsened","[6]; Q4D 60 mg/m^2, 22 pts",0
same,BUN toxicity: A None,"[6]; Q4D 60 mg/m^2, 22 pts",21
same,"BUN toxicity: B Abnormal pre-III, Improved","[6]; Q4D 60 mg/m^2, 22 pts",0
same,"BUN toxicity: C Abnormal pre-III, Worsened or same","[6]; Q4D 60 mg/m^2, 22 pts",0
same,"BUN toxicity: D Normal pre-III, Worsened","[6]; Q4D 60 mg/m^2, 22 pts",0
same,Creat toxicity: A None,"[6]; Q4D 60 mg/m^2, 22 pts",21
same,"Creat toxicity: B Abnormal pre-III, Improved","[6]; Q4D 60 mg/m^2, 22 pts",0
same,"Creat toxicity: C Abnormal pre-III, Worsened or same","[6]; Q4D 60 mg/m^2, 22 pts",0
same,"Creat toxicity: D Normal pre-III, Worsened","[6]; Q4D 60 mg/m^2, 22 pts",0
same,LDH toxicity: A None,"[6]; Q4D 60 mg/m^2, 22 pts",18
same,"LDH toxicity: B Abnormal pre-III, Improved","[6]; Q4D 60 mg/m^2, 22 pts",3
same,"LDH toxicity: C Abnormal pre-III, Worsened or same","[6]; Q4D 60 mg/m^2, 22 pts",0
same,"LDH toxicity: D Normal pre-III, Worsened","[6]; Q4D 60 mg/m^2, 22 pts",0
same,T P toxicity: A None,"[6]; Q4D 60 mg/m^2, 22 pts",21
same,"T P toxicity: B Abnormal pre-III, Improved","[6]; Q4D 60 mg/m^2, 22 pts",0
same,"T P toxicity: C Abnormal pre-III, Worsened or same","[6]; Q4D 60 mg/m^2, 22 pts",0
same,"T P toxicity: D Normal pre-III, Worsened","[6]; Q4D 60 mg/m^2, 22 pts",0
same,toxicity or hypersensitivity vs currently recommended dosages,"[6]; Q4D regimen, also without pretreatment",reduced toxicity or hypersensitivity reactions
same,CMAX taxol-associated toxicity,[6]; Q4D schedule,no clinically significant CMAX taxol-associated toxicity
same,"abnormalities on UA., CA^++, Phos, CO2, Cl, Na^+, K^+, Mg^+",[6]; in vivo,No abnormalities detected
same,alopecia,[6]; in vivo,2/4
same,diploplia for several hours each day following treatment,[6]; in vivo,One
same,malaise and fatigue,[6]; in vivo,Four
same,toxicity of infusion with separated treatment days,[6]; treatment days separated by 3-5 days,toxicity of the taxol infusion was diminished
same,toxicity of dosage,"[7]; 10 mg/kg IP Q4D×3, neuroblastoma tumor bearing nude mice",non-toxic dosage
same,toxicity of schedule,[7]; 15 mg/kg every 4 hours×3 in one day,equally non-toxic
same,toxicity of schedule,[7]; 15 mg/kg every 4 days×3,equally non-toxic
same,indications of toxicity (wasting or weight loss),"[7]; Study B, 15 mg/kg IP Q4D×3",no indications of toxicity
same,viability at 0.3 µg/mL,[8]; [12],61%
same,viability at 0.6 µg/mL,[8]; [12],24%
same,cytotoxic effects of single vs split exposure,[8]; single exposure 0.6 μg/ml/h,greater than when taxol was scheduled as 0.3 μg/ml given once and once again after 30 minutes
same,taxol in the colon,[9],Substantial amounts
same,taxol in tumor and organs,[9],detectable in tumor and organs
same,antitumor activity in words,[10]; 10 mg/kg IP Q4D×3,antitumor activity ranging from tumor growth inhibition to tumor lysis
same,variance in response to drug therapy,[10]; 10 mg/kg IP Q4D×3,ranging from tumor lysis to slowed growth
same,mice with delayed tumor growth,"[10]; Study C, 10 mg/kg IP Q4D×3",4/5
same,mice with tumor regression,"[10]; Study C, 10 mg/kg IP Q4D×3",1/5
same,"tumor sizes or weight gain, day 1 vs day 14","[10]; Treated Group B, 10 mg/kg IP Q4D×3",no significant difference in tumor sizes or weight gain
same,weight gain between day 1 and day 14,"[10]; mouse, in vivo",no significant weight gain
same,"Wt, Day #1, MEAN","[10]; mouse, in vivo, ip, 10 mg/kg",26.6
same,"Wt, Day #14, MEAN","[10]; mouse, in vivo, ip, 10 mg/kg",28.8
same,"Tumor area, Day #1, MEAN","[10]; treated, 10 mg/kg IP Q4D×3, S.E. ±5.1",60.3
same,"Tumor area, Day #5, MEAN","[10]; treated, 10 mg/kg IP Q4D×3, S.E. ±21.5",93
same,"Tumor area, Day #9, MEAN","[10]; treated, 10 mg/kg IP Q4D×3, S.E. ±23.6",105.6
same,"Tumor area, Day #14, MEAN","[10]; treated, 10 mg/kg IP Q4D×3, S.E. ±54.8",142
same,Kp,[11],0.01
same,peripheral blood CMAX,[11],1400 ng/mL
same,Cmax,[11]; 0-40 ng/ml CMAX (so in the source),< 40 ng/mL
same,half-life,[11]; T1/2 α,15 min
same,half-life,[11]; distributive phase T1/2 α,7 to 20 min
same,Cmax,[11]; peripheral blood CMAX,1240 ng/mL
